This passage reports melting point results from a melting point compilation (Tetko et al.; mined from patent text by program, amines drawn as free bases though some values may be those of a salt).

As usually defined, the melting point is the temperature, or range, at which the solid turns liquid. Compound `CCCC(=O)c1cc(C(=O)C(=O)OC(=O)C(=O)c2cc(C(=O)CCC)c(C)cc2NCC)c(NCC)cc1C` showed a melting point of 141 to 143 °C.

`Cn1cc(-c2cccc(-n3ncc4cc(C(C)(C)C)cc(F)c4c3=O)c2CO)cc(Nc2ccc(C(C)(C)C(=O)O)cn2)c1=O` gave a melting point of 218 to 220 °C.

Regarding `Nc1ccccc1N1CCN(CCCCn2c(=O)[nH]c(=O)c3ccccc32)CC1`, the melting point worked out at 121 °C.

`O=C1NCCSC1Cc1ccc(OCc2ccccc2)cc1` (stereo unspecified): the melting point was in the range of 126 to 128 °C.

`Cc1noc(-c2ncn3c2CN(C)C(=O)c2cc(F)ccc2-3)n1` showed a melting point of 244 to 245 °C.

Compound `COC(=O)c1cnc(N)c(N)c1` gave a melting point of 154 to 155 °C.

In turn, `COC1C=C(C)C(=O)CC(C)(C)C1OC(=O)c1ccc([N+](=O)[O-])cc1` (stereo unspecified) came in with a melting point of 122 to 123 °C.

The compound `Cc1ccc(-c2ccc(Cl)c(OC3SCC(O)C(O)C3O)c2)cn1` (stereo unspecified) returned a melting point of 201 °C.

`CN(CCOc1ccc(OC(F)(F)F)cc1)CC1(C)Cn2cc([N+](=O)[O-])nc2O1` (stereo unspecified) yielded a melting point of 86.4 to 89.2 °C.

For `c1ccc(C2CCN(c3nsc4ccccc34)CC2)cc1`, the melting point lay in the range of 175 to 177 °C.

For `COc1ccc(C(=O)Nc2ccc3cccnc3n2)cc1`, the melting point stood at 150 °C.

As to `Clc1ccc(-n2c(Cl)nc3ccccc32)c(Cl)c1`, the melting point lay in the range of 80 to 83 °C.

The compound `CC(C)(CO)Oc1ccc2c(c1)CCc1c-2ccc2c1CCC2(C)C` had a melting point of 122 to 125 °C.

`CCC1(C)CC(NC(=O)c2ccccc2)C(C)C(C)(CC)N1Cc1ccccc1` (stereo unspecified) registered a melting point of 173 to 176 °C.

As for `O=C(NCc1ccc(Cl)cc1)c1cnc2cc(-n3cccc3)ccc2c1O`, the melting point was > 200 °C.

`N#CCC(=O)N[C@H]1CC[C@H](CCN2CCN(c3nccc4c3CCO4)CC2)CC1` showed a melting point of 188 °C.

Compound `N#Cc1nnc2n1-c1ccc(Cl)cc1C(c1ccccc1)=NC2` came in with a melting point of 191 to 192 °C.

On to `Cc1c(-c2ccncc2)oc2c1C(=O)CCC2`, for which the melting point lay within 136 to 138 °C.

In the case of `CCc1nc(-c2cccc(C)c2)c(-c2ccnc(NC(=O)Cc3ccccc3)c2)s1`, the melting point was 107 to 108 °C.

`COc1cc(CCC=O)ccc1OCc1nc(-c2ccccc2)oc1C` showed a melting point of 80 to 81 °C.

In turn, `CCOc1cc(C(C)C)c2c(c1)S(=O)(=O)N(CSc1ccccc1)C2=O` had a melting point of 112 °C.

As for `CCOC(=O)c1sc(N2CCN(Cc3ccc(C(F)(F)F)cc3)C2=O)nc1C`, the melting point is 126 to 127 °C.

For the compound `CCNC(=NNc1c(Cl)cc(C(F)(F)F)cc1Cl)C1(C)CC1(Cl)Cl` (stereo unspecified), the melting point is 79 °C.

As to `O=C(O)Cc1c(C(=O)C2CCC2)[nH]c2cc(Cl)ccc12`, the melting point was in the range of 225 to 228 °C.

Consider `N#Cc1cccn2cc(-c3ccc(C(=O)NCCC(=O)O)cc3)nc12`, for which the melting point is 212 to 215 °C.

Compound `CNCc1ccc(C2CCN(c3cc4c(cc3F)c(=O)c(C(=O)O)cn4C3CC3)C2)cc1` (stereo unspecified) had a melting point of 235 to 237 °C.

`CC(=O)C(=O)CCCCCCOc1ccc(-c2ccccc2)cc1`: the melting point lay within 110 to 111 °C.

Compound `Oc1cc(F)ccc1Oc1ccc(-c2ccco2)cc1O` yielded a melting point of 102 to 104 °C.

In the case of `CNc1nc2ccncc2[nH]1`, the melting point worked out at 256 °C.

`Cc1cn(-c2cc(NC(=O)n3ccc4cc(Oc5cc(CC(N)=O)ncn5)ccc43)cc(C(F)(F)F)c2)cn1`: the melting point lay in the range of 223 to 229 °C.

For `CCOC(=O)CC(=O)c1ccc([N+](=O)[O-])c(C)c1`, the melting point is 48 to 50 °C.

In turn, `COC(=O)c1cccc2cc(C)[nH]c12` came in with a melting point of 170 to 173 °C.

Regarding `Cc1cc(-c2cccc(C(=O)CC(=O)Nc3cc(-c4ccccc4F)ccc3NC(=O)OC(C)(C)C)c2)on1`, the melting point is 158 to 160 °C.

Compound `Oc1ccc(C(=S)c2ccc(-c3ccccc3)cc2)c(O)c1` came in with a melting point of 114 to 116 °C.

On to `CNC(=S)NN=C(CCCOC(=O)Nc1ccccc1)c1ccccc1`, for which the melting point is 155 to 157 °C.

The compound `Cc1ccc(Oc2cccc(C#CC(C)N(O)C(N)=O)c2)cc1F` (stereo unspecified) yielded a melting point of 128 to 130 °C.

On to `Cc1c(C(=O)C(=O)NC2=CC(=O)OC2)c2ccccc2n1Cc1ccc(Cl)cc1`, for which the melting point was 254 to 256 °C.

In the case of `Oc1ccc(-c2ncc3ncc(-c4ccncc4)cc3n2)cc1`, the melting point is > 268 °C.

Compound `O=C(O)c1cccc(NC(=O)C(CS)Cc2cccnc2)c1` (stereo unspecified) came in with a melting point of 94 to 97 °C.

Compound `C[C@H](N=Cc1ccc(OCc2cccc(F)c2)cc1)C(N)=O` registered a melting point of 112 °C.

In the case of `CC(C)n1c(C=O)c(-c2ccc(F)cc2)c(-c2ccccc2)c1C(=O)Nc1cccc(C(=O)N(C)C)c1`, the melting point fell in the range of 202 to 203 °C.

`COc1ccc(OC(Cc2ccc(OCCNC(=O)c3ccc(-c4ccccn4)cc3)cc2)C(=O)O)cc1` (stereo unspecified) showed a melting point of 67.5 to 70 °C.

Turning to `O=C(Oc1ccc(C(=O)c2ccc(Cl)cc2)cc1)Oc1ccc(C(=O)c2ccc(Cl)cc2)cc1`, the melting point lay in the range of 235 to 237 °C.

Turning to `Cc1cc(OCC(=O)O)ccc1NC(=O)c1ccc(N2CCNCC2)cc1`, the melting point is > 250 °C.

As to `O=C1NC(=O)C(Cc2ccc(OCCN3CCc4ccccc43)cc2)S1` (stereo unspecified), the melting point lay within 133 to 136 °C.

For the compound `CN1CCN(c2cccc3ccc(C(=O)c4ccccc4)cc23)CC1`, the melting point was found to be 124 °C.

Take `CCOC(=O)CC(=O)Nc1ccc(N)c([N+](=O)[O-])c1`: the melting point was in the range of 133 to 136 °C.

Compound `Cc1nc(Br)c(S(C)(=O)=O)c(Br)n1` returned a melting point of 161 to 162 °C.

For the compound `CN1CCN(c2c(Br)cc3c4c(cccc24)C(=O)N(O)C3=O)CC1`, the melting point lay within 184 to 186 °C.

Regarding `CC#CCOc1ccc(S(=O)(=O)NC(C(=O)NO)C(C)(C)SCCN2CCOCC2)cc1` (stereo unspecified), the melting point was 72 °C.

Compound `COc1cc2c(cc1Nc1ncc(Cl)c(Nc3ccccc3S(=O)(=O)N(C)C)n1)N(CC(=O)N(C)C)C(=O)CN(CC(=O)N(C)C)C2` had a melting point of 154 °C.

Regarding `Cc1cc(C(=O)CS(C)(=O)=O)cc(C)c1N(C)C`, the melting point was in the range of 132 to 133 °C.

Compound `O=C(Nc1cccc(O)c1)C(=O)N1CCC(Cc2ccc(F)cc2)CC1` returned a melting point of 175 to 179 °C.

`O=C(O)C(CBr)(CBr)COCC(CBr)(CBr)C(=O)O` registered a melting point of 189 to 193 °C.

The compound `CCOC(=O)N1CCC(=C2c3ccc(Cl)cc3OCc3cc([N+](=O)[O-])cnc32)CC1` showed a melting point of 192 to 193 °C.

`CCN(CC)CC1CCCCN1C(=O)c1ccc(-c2[nH]nc3c2C(=O)c2c(NC(=O)NN4CCOCC4)cccc2-3)s1` (stereo unspecified) had a melting point of 210 to 212 °C.

The compound `Nc1ccccc1CNC(=O)C1Cc2ccccc2N1S(=O)(=O)c1ccc(-c2ccc(F)cc2F)cc1` (stereo unspecified) came in with a melting point of 93 to 96 °C.

The compound `CN(C)CCNC(=O)c1ccc(Br)cc1` displayed a melting point of 67 to 69 °C.

As to `C[C@]1(Cn2cc([N+](=O)[O-])nc2Cl)CO1`, the melting point fell in the range of 65.5 to 67 °C.

Turning to `CCOCCNC(=O)c1cc(C(=O)OC)c(O)c2ncc(Cc3ccc(F)cc3)cc12`, the melting point lay within 174 to 175 °C.

`COCC(=O)NS(=O)(=O)c1cccc(-c2cccc(-c3cc(-c4ccc(C(F)(F)F)cc4)cc(C)n3)n2)c1`: the melting point was determined as 188 °C.

`O=C1NN=C(c2ccccc2)c2c[nH]c3cccc1c23` yielded a melting point of 177 to 179 °C.

Regarding `Cc1cc(C#CC=O)nc(Oc2cc(C(F)(F)F)nn2C)c1`, the melting point stood at 73 °C.

Compound `O=C(c1ccc(-c2ccc3c(c2)CCN(C2CCN(Cc4ccccc4)CC2)C3=O)cc1)N1CCCC1` showed a melting point of 197 to 198 °C.

For `Cc1oc(-c2ccccc2)nc1COc1ccc(C(=O)c2ccc(O)cc2OCC(=O)O)cc1`, the melting point fell in the range of 229 to 230 °C.

Consider `Clc1ccc(Nc2nc3ccccc3c3[nH]c(C4CCCC4)nc23)cc1`, for which the melting point was 189 to 190 °C.

For the compound `Cn1cc(S(C)=O)c(=O)c2sc(-c3ccccc3)cc21` (stereo unspecified), the melting point was 252 to 255 °C.

Compound `O=C(O)c1c(-c2cccc3ccccc23)c2ccccc2n1Cc1cc2c(cc1Cl)OCO2` showed a melting point of 241 to 242 °C.

`COc1ccc(CN2CCc3cc(O)ccc3C2)cc1` gave a melting point of 158 to 160 °C.

For `Cc1ccc(-c2[nH]c(-c3c(C)cc(C)cc3C)nc2-c2ccncc2)cc1`, the melting point lay within 277 to 279 °C.

`CCS(=O)(=O)N(c1cc([N+](=O)[O-])c(F)cc1Br)S(=O)(=O)CC` displayed a melting point of 144 to 146 °C.

For `NC(=O)c1ccc(C(c2ccccc2[N+](=O)[O-])(C(F)(F)F)C(F)(F)F)cc1`, the melting point was in the range of 147 to 148 °C.

With `c1ccc2c(c1)ncc1nc(C3CCCCC3)[nH]c12`, the melting point is 205 to 206 °C.

For the compound `COCCOCC(=O)Nc1c([N+](=O)[O-])cnn1-c1c(Cl)cc(C(F)(F)F)cc1Cl`, the melting point lay within 103 to 105 °C.

Turning to `NC(=S)c1ccc(CC(NC(=O)OCc2ccccc2)C(=O)NCC(=O)NCCC(=O)OCc2ccccc2)cc1` (racemic), the melting point was in the range of 150 to 151 °C.

For `CCOc1ccccc1-c1nc2nc(SC)ncc2c(=O)[nH]1`, the melting point lay within 224 to 226 °C.

`CC1CCC(Nc2ccccc2)c2nccc(=O)n21` (stereo unspecified) had a melting point of 160 to 162 °C.

Compound `CCOC(=O)[C@@H]1CCCN1C(=O)C1=Cc2ccccc2CC1` showed a melting point of 55 to 57 °C.

As to `C1=COc2ccccc2O1`, the melting point lay within 59 to 61 °C.

Take `COc1ccc(S(C)(=O)=O)cc1C=O`: the melting point lay within 140 to 143 °C.

In turn, `Nc1cc(NC(=O)c2ccc(Cl)c(Cl)c2)ccc1F` displayed a melting point of 151 to 153 °C.

On to `Cc1cc(=S)c2c(O)cc(O)cc2o1`, for which the melting point was in the range of 244 to 246 °C.

In the case of `O=C(Nc1[nH]nc(-c2c(Cl)cc(C(F)(F)F)c(F)c2Cl)c1[N+](=O)[O-])C(Cl)Cl`, the melting point was 115 to 117 °C.

For the compound `COc1ccc2c(c1)Oc1cscc1C(N1CCN(C)CC1)=N2`, the melting point was in the range of 188 to 189 °C.

For `Cc1ccc([N+](=O)[O-])cc1C=CC#N`, the melting point stood at 113 °C.

The compound `Clc1cccc(-c2nc3cccc(NCc4ccccn4)c3o2)c1` gave a melting point of 115 to 116 °C.
